This note sets out measurements from patent publication US6391921B1 (priority 2000, dated 2002).

The test system of assay [1] is RBL-2H3 mast cells. Briefly: IgE/antigen induced calcium mobilization in mast cells (fluo-3 imaging). Type of assay: cell-based, rat. To be noted: 30 μM, 20 minutes prior to stimulation with 20 ng/ml DNP-BSA; FIG. 2A. As to the method: To study the effects of compound D-58, RBL-2H3 cells were incubated with compound D-58 at the indicated concentrations or vehicle for 1 hour prior to antigen challenge. Mast cell degranulation (β-hexosaminidase release, % of total) was assessed by measuring the β-hexosaminidase levels in cell free supernatants and Triton X-100 solubilized pellets using the formula: β-hexosaminidase release, % of total=100×(β-hexosaminidase level in supernatant/β-hexosaminidase level in supernatant+solubilized pellet). LTC4 levels in cell free supernatants of mast cells were estimated using standard procedures (ref 24). […]
The results are shown in FIGS. 2A-B. IgE/antigen stimulation of RBL-2H3 mast cells activates a cascade of signal transduction events, which includes tyrosine phosphorylation of several proteins and SYK/BTK-mediated activation of phospholipase C, which generates second messengers inositol 1,4,5-triphosphate (IP3) and 1,2-diacylglycerol (DAG) (ref 7). […] IgE sensitized and Ca^2+ indicator fluo-3/AM loaded RBL-2H3 cells were stimulated with 20 ng/ml antigen (DNP-BSA) in presence of 1 mM calcium chloride and the fluorescence intensity, reflecting the calcium ion concentration was measured. […]
The fluorescent Ca^2+ indicator, fluo-3/AM (Molecular Probes) was used to detect Ca^2+ mobilizations in individual cells (ref 25). […] The background fluorescence was subtracted from each image.
Background: A change in cytosolic calcium serves as a functional read-out for many receptors and channels.

The test system of assay [2] is RBL-2H3 mast cells. The experiment in a line: Ionomycin or thapsigargin induced calcium mobilization in mast cells. The note with it: 30 μM compound for 20 minutes, FIG. 2B. Type of assay: cell-based, rat. From the text:
An alternative mechanism for the cells to maintain low cytosolic calcium levels is the activation of cell plasma membrane calcium ATPase or calcium pump (refs 32 and 33). Therefore, the effect of compound D-58 on ionophore and thapsigargin induced calcium mobilization also was studied. Ionomycin takes extracellular calcium inside the cells, and bypasses most of the signal transduction events, whereas thapsigargin inhibits endoplasmic reticulum calcium pump, and selectively depletes IP3-sensitive storage resulting in an increase in the cytosolic calcium levels (ref 33). In summary, IgE-sensitized RBL-2H3 cells were treated with 30 μM compound D-58 for 20 minutes and challenged with DNP-BSA (20 ng/ml). The cells were then stimulated with either ionomycin (1 μM), or thapsigargin (2 μM). The arrows indicate the time points at which the cells were exposed to the agents.
The fluorescent Ca^2+ indicator, fluo-3/AM (Molecular Probes) was used to detect Ca^2+ mobilizations in individual cells (ref 25). Briefly, the IgE sensitized monolayers of mast cells were incubated with 1 μM fluo-3/AM at 37° C. for 30 minutes. After incubation the cells were washed twice and 1 ml PIPES buffer was added to the wells. […] The image acquisition and fluorescence intensity analysis were controlled by the software MetaFluor (Universal Imaging Co.). The background fluorescence was subtracted from each image.

In assay [3] the target is T1, Src family tyrosine kinase HCK (Homo sapiens, UniProt P08631).
T1 construct: expressed in transfected cells; host or cells: COS-7 cells transfected with pSV7c-HCK; immunoprecipitated with anti-HCK antibody
The experiment in a line: HCK kinase assay (immunoprecipitated from HCK-transfected COS-7 cells). Type of assay: biochemical. The note with it: FIG. 1C; 1 hour exposure. As to the method: For HCK kinase assays, HCK-transfected COS-7 cells were used. The cloning and expression of HCK in COS-7 cells has been described previously (ref 18). The pSV7c-HCK plasmid was transfected into 2×10^6 COS-7 cells using Lipofectamine (GIBCO/BRL), and the cells were harvested 48 hours later. The cells were lysed in NP-40 buffer and HCK was immunoprecipitated from the whole cell lysates with an anti-HCK antibody. Kinase assays were performed following a 1 hour exposure of the purified (BTK, SYK) or immunoprecipitated (HCK) tyrosine kinases to the test compound, as described in detail elsewhere (refs 18-22). Following electrophoresis, kinase gels were dried onto Whatman 3M filter paper and subjected to phosphoimaging on a Molecular Imager (Bio-Rad, Hercules, Calif.) as well as autoradiography on film. […] For each drug concentration, a BTK or SYK kinase activity index was determined by comparing the ratios of the kinase activity in phosphorimager units (PIU) and density of the protein bands in densitometric scanning units (DSU) to those of the baseline sample and using the formula: Activity Index=[PIU of kinase band/DSU of BTK/SYK protein band]test sample: [PIU of kinase band/DSU of BTK/SYK protein band]baseline control sample.

Where only a bound is given, the exact number is not on record here.

T1 sequence (P08631 whole entry): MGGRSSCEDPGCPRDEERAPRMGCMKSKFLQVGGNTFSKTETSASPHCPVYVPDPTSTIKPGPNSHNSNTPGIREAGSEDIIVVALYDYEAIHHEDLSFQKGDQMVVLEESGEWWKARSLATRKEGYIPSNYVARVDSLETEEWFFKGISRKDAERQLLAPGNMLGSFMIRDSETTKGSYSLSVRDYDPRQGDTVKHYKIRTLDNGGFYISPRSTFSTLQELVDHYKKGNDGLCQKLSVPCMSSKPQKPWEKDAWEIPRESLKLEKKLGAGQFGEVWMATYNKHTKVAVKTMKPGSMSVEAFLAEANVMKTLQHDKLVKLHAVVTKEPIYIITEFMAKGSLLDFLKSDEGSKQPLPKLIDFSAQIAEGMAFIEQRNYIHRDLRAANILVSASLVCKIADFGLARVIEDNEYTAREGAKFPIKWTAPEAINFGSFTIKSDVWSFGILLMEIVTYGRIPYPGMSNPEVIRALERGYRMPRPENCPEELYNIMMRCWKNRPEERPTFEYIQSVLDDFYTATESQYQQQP

A word on the IC50: it is the concentration needed to halve the response being measured. Low values mean greater potency in that assay, high ones weaker potency in that assay. As to `COc1ccc(CC(=O)c2c(O)cc(O)cc2O)cc1` [Compound D-58], the “IgE/antigen induced calcium response” value in the assay on RBL-2H3 mast cells [1] is reported as “abrogation of calcium mobilization”. The “calcium response induced by ionomycin” value with RBL-2H3 mast cells [2] (1 μM ionomycin) was “did not inhibit”. Also, the “calcium response induced by thapsigargin” value with RBL-2H3 mast cells [2] (2 μM thapsigargin) was “did not inhibit”. Further, the IC50 in assay [3] was over 200 µM.
